Experimental data reported in patent US20170105999A1, “METHOD FOR TREATING DRUG RESISTANT CANCER” (NATIONAL YANG MING UNIVERSITY, priority 2014, published 2017).
pIC50: −log10 of the molar value.

Columns and labels:
H226 = test: Tumor spheroid (sphere formation) assay; assay type: cell-based; settings: H226, squamous cell carcinoma
U87MG = test: Tumor spheroid (sphere formation) assay; assay type: cell-based; settings: brain cancer
PANC-1 = test: Tumor spheroid (sphere formation) assay; assay type: cell-based; settings: PANC-1, pancreatic cancer
CL152 [1] = test: Aldefluor assay (ALDH-positive cell population)
NSCLC cell lines [2] = settings: conclusion in words
Method: Cells were plated in 96-well plates at a density of 2000 cells per well in triplicate. The cells were treated on the third day (to ensure proper plating efficiency and vitality) to indicated agents for 48 hrs. […] Cytotoxicity was assessed using the sulforhodamine B (SRB) assay (23). Briefly, the medium was discarded, and the adherent cells were fixed by 100 μl of cold 10% trichioroacetic acid (w/v) in each well for 1 h at 4° C. After fixation, cells were stained with 100 μl/well of 0.4% (w/v, in 1% acetic acid) SRB solution for 30 min at room temperature, and then washed 5 times with 1% acetic acid. After air-drying, 100 μl of 10 mM Tris base was added to each well and the absorbance was read at 530 nm. Cytotoxicity is expressed as the percent of cells in drug treated wells relative to number of cells in the solvent only control (set to 100%). Each experiment was performed independently at least 2 times in triplicate and cytotoxicity is given as means ±SD.
(§1) A549, A549-ON, CL97, CL141, HCC827, and H441 were lung adenocarcinoma cell lines. CL152, H2170, and H226 were squamous cell carcinoma cell lines. Cell viability was determined by SRB assay. […] To determine whether side population (SP) cells, which represent a cell population with CSC characteristics, exist in NSCLC cell lines, we stained the cells with the fluorescent dye, Hoechst 33342, and analyzed the cells with flow cytometry.

CL141 spheres = test: Cytotoxicity at sphere cells, Trypan Blue Exclusion method; assay type: cell-based; settings: read-out: IC50 for prochlorperazine metabolites
A549 cells = test: Senescence, β-galactosidase (SA-β-Gal) activity; assay type: cell-based; settings: A549, 24 hours; 1 μM prochlorperazine, 50 μM resveratrol as positive control
Excerpt: EMT also plays a critical role in the regulation of cancer sternness. EMT is characterized by enhanced cell migration and invasion.

A549 = test: Aldefluor assay (ALDH-positive cell population); assay type: cell-based; settings: A549, adenocarcinoma
Method: (§2) Briefly, single cells obtained from cell cultures were incubated in an Aldefluor assay buffer containing an ALDH substrate (bodipy-aminoacetaldehyde, BAAA) for 50 minutes at 37° C.

CL141 [3] = test: Aldefluor assay (ALDH-positive cell population); assay type: cell-based; settings: CL141, adenocarcinoma
Method: as §2

CL97 [4] = test: Aldefluor assay (ALDH-positive cell population); assay type: cell-based; settings: CL97, adenocarcinoma
Method: as §2

Mahlavu = test: Tumor spheroid (sphere formation) assay; assay type: cell-based; settings: liver cancer
NSCLC cell lines [5] = test: Clonogenic assay in NSCLC cell lines; assay type: cell-based; settings: different concentration of prochlorperazine
Method: Tested cells were seeded respectively in 6 well plates with 10^4 cells per well for 14 days. […] After removing the crystal violet carefully and rinse with tap water, the colonies were counted manually.
as §1

CL141 [6] = test: Tumor spheroid (sphere formation) assay; assay type: cell-based
NSCLC cells = test: Side population analysis in NSCLC cells; assay type: cell-based; settings: 48 hours of incubation at 2.5, 5 and 10 μM
Method: (§3) Single-cell suspensions of cells were detached from dishes with Trypsin-EDTA (Invitrogen) and suspended at 1×10^6 cells/mL in Hank's balanced salt solution ([…]) supplemented with 3% fetal calf serum and 10 mM Hepes. These cells were then incubated at 37° C. for 90 minutes with 20 μg/mL Hoechst 33342 (Sigma Chemical, St. Louis, Mo.). […] After 90 minutes incubation with indicated drugs, the cells were centrifuged immediately for 5 minutes at 300 g and 4° C. and resuspended in ice-cold HBSS, The cells were kept on ice to inhibit efflux of the Hoechst dye, and 1 μg/mL propidium iodide (PI, BD) were added to discriminate dead cells. Finally, these cells were filtered through a 40 μm cell strainer (BD) to obtain single-suspension cells. Cell dual-wavelength analysis and purification were performed on a dual-laser FACS Vantage SE (BD). Hoechst 33342 can be excited at 355 nm UV light and emitted blue fluorescence with a 450/20 band-pass (BP) filter and red fluorescence with a 675 nm edge filter long-pass (EFLP). […]
as §1, with “CL152, H2170, and H226 were squamous cell carcinoma cell lines.” left out

SK-Hep 1 = test: Tumor spheroid (sphere formation) assay; assay type: cell-based; settings: SK-Hep 1, liver cancer
CL152 [7] = test: Side population analysis by flow cytometry (Hoechst 33342); assay type: cell-based; settings: CL152, squamous cell carcinoma
Method: (§4) Single-cell suspensions of cells were detached from dishes with Trypsin-EDTA (Invitrogen) and suspended at 1×10^6 cells/mL in Hank's balanced salt solution ([…]) supplemented with 3% fetal calf serum and 10 mM Hepes. These cells were then incubated at 37° C. for 90 minutes with 20 μg/mL Hoechst 33342 (Sigma Chemical, St. Louis, Mo.). […] After 90 minutes incubation with indicated drugs, the cells were centrifuged immediately for 5 minutes at 300 g and 4° C. and resuspended in ice-cold HBSS, The cells were kept on ice to inhibit efflux of the Hoechst dye, and 1 μg/mL propidium iodide (PI, BD) were added to discriminate dead cells. Finally, these cells were filtered through a 40 μm cell strainer (BD) to obtain single-suspension cells. Cell dual-wavelength analysis and purification were performed on a dual-laser FACS Vantage SE (BD). Hoechst 33342 can be excited at 355 nm UV light and emitted blue fluorescence with a 450/20 band-pass (BP) filter and red fluorescence with a 675 nm edge filter long-pass (EFLP). A 610 nm dichroic mirror short-pass (DMSP) was used to separate the emission wavelengths. PI-positive (dead) cells were excluded from the analysis.
as §1

CL141 [8] = test: as above; assay type: cell-based; settings: CL141, adenocarcinoma
Method: as §4, §1

CL97 [9] = test: as above; assay type: cell-based; settings: CL97, adenocarcinoma
Method: as §4, §1

H1299 = test: Tumor spheroid (sphere formation) assay
Method: In brief, single cells were plated in 6-well ultralow attachment plates (Coming Inc.) at a density of 2,000 cells/mL in tumor spheroid culture medium, DMEM/F12 supplemented with 1% N2 Supplement (Invitrogen), 10 ng/mL basic fibroblast growth factor (Sigma-Aldrich), 10 ng/mL epidermal growth factor (Invitrogen) with 1% penicillin/streptomycin (Invitrogen) at 37° C. in a humidified atmosphere of 95% air and 5% CO2. Cells were cultured twice per week. When passaged, tumor spheres were harvested. Spheroids were dissociated with TrypLE™ (Invitrogen). Spheroids cell counting using the Trypan Blue Exclusion method.

H441 = test: Side population analysis by flow cytometry (Hoechst 33342); assay type: cell-based, human; settings: H441, adenocarcinoma
Method: as §3
as §1, with “CL152, H2170, and H226 were squamous cell carcinoma cell lines.” left out

CL141 [10] = test: Clonogenic assay; assay type: cell-based; settings: CL141, adenocarcinoma
Excerpt: […] […] After the treatments, cells were washed with PBS, and the colonies were fixed with fix solution (methanol: acetic acid=3:1) and stained with 0.5% crystal violet in methanol. After removing the crystal violet carefully and rinse with tap water, the colonies were counted manually.

Molecule `CN1CCN(CCCN2c3ccccc3Sc3ccc(Cl)cc32)CC1` [prochlorperazine] has a Sphere formation (H226) of 0 to 5 µM, a Sphere formation (U87MG) of 10 to 15 µM and a Sphere formation (PANC-1) of 10 to 20 µM. For the same molecule, the “ALDH^+ CL152 population” value (CL152 [1]; CL152) was “decreased the ALDH^+ CL152 population in a dose-dependent manner”, the “ALDH^+ assay” value (CL152 [1]; CL152, squamous cell carcinoma) was less than 5 µM and the “cytotoxic effects in NSCLC cells” value (NSCLC cell lines [2]) was “low or minimal cytotoxic effects”. For the same molecule, the pIC50 (CL141 spheres) was greater than 5.30, the “β-galactosidase activity (senescence)” value (A549 cells) was “increased β-galactosidase activity” and the “ALDH^+ assay” value (A549) was less than 5 µM. The “ALDH^+ assay” value (CL141 [3]) was less than 5 µM, the “ALDH^+ assay” value (CL97 [4]) was less than 5 µM and the Sphere formation (Mahlavu) was greater than 5 µM. For the same molecule, the “Clonogenicity of NSCLC cell lines” value (NSCLC cell lines [5]) was “reduced in a concentration-dependent manner”, the Sphere formation (CL141 [6]; CL141, adenocarcinoma) was 0 to 2.5 µM and the number of spheres (CL141 [6]; CL141 sphere cells, 1, 2.5, 5 and 10 μM, 48 hours, concentration-dependent) was “reduced the number of spheres”. For the same molecule, the “number of sphere cells, co-treatment” value (CL141 [6]; CL141 spheres, co-treatment with pemetrexed vs pemetrexed alone, 48 hours) was “significantly decreased the number of sphere cells”, the “proportion of SP cells” value (NSCLC cells) was “dose-dependently decease” and the Sphere formation (SK-Hep 1) was greater than 5 µM. For the same molecule, the Side population (CL152 [7]) was less than 5 µM, the Side population (CL141 [8]) was greater than 10 µM and the Side population (CL97 [9]) was less than 5 µM. The sphere-forming ability (H1299; H1299) was “suppressed the sphere-forming ability”, the Sphere formation (H1299; H1299, large cell carcinoma) was 0 to 5 µM and the “spheres number, combination with cisplatin” value (H1299; H1299, combination with cisplatin vs prochlorperazine or cisplatin alone) was “lower spheres number”. It also gave a Side population (H441) of less than 5 µM and a Clonogenic assay (CL141 [10]) of 5 to 10 µM.
